Reference: paper PMC8139662 (Journal of Virology, 2021)
Values joined by “and” are separate entries in the source; they are usually repeats but may differ in a detail not shown here. Equal entries are not always repeated. Where two headings read alike, the source gives them in different places.

Columns and labels:
SARS-CoV-2 USA-WA1/2020 [1] = assay type: cell-based; conditions: for protection from ring syncytium formation (CPE): at 0.33 μM and above; for protection from ring syncytium formation (CPE) / overall number of infected foci: microscopy; for protection from virus-induced CPE: at 1 μM (PF-00835231: 1 μM and above); for overall number of infected foci: A549+ACE2, drug treatment
[2] = system: SARS-CoV-2 USA/NYU-VC-003/2020; assay type: cell-based
SARS-CoV-2 USA-WA1/2020 [3] = test: Time-of-drug-addition assay in A549+ACE2 cells; assay type: cell-based; conditions: A549+ACE2, USA-WA1/2020
SARS-CoV-2 USA-WA1/2020 [4] = assay type: cell-based; conditions: for SARS-CoV-2 infectious titers in apical washes: 10 μM basolateral, washes every 12 h up to 72 h; for number of infected (N-expressing) cells: 10 μM, 72-h endpoint
[5] = system: polarized human airway epithelial cultures (HAEC)
BCi-NS1.1 cells = conditions: 48 h, dose range up to 10 μM
SARS-CoV-2 [6] = conditions: Vero E6 cells; cited from earlier work
[7] = system: panel of diverse coronavirus 3CL^pro; conditions: alpha-, beta- and gammacoronavirus 3CLpro panel; cited from earlier work
SARS-CoV-2 [8] = conditions: PF-00835231 with remdesivir, in vitro; cited from earlier work
COVID-19 patients = conditions: patients with more advanced infection, i.v.; cited from earlier work
in vitro = conditions: human
[9] = PF-00835231 versus GC-376 set (Table 2)

Row | SMILES | protection from ring syncytium formation (CPE) (SARS-CoV-2 USA-WA1/2020 [1]; A549+ACE2) | protection from virus-induced CPE (SARS-CoV-2 USA-WA1/2020 [1]) | overall number of infected foci (SARS-CoV-2 USA-WA1/2020 [1]) | EC90 [2] | EC50 [2, 9] [nM] | minimum treatment dose that led to undetectable infection levels (SARS-CoV-2 USA-WA1/2020 [3]) [µM] | SARS-CoV-2 infectious titers in apical washes (SARS-CoV-2 USA-WA1/2020 [4]) | number of infected (N-expressing) cells (SARS-CoV-2 USA-WA1/2020 [4]) | CC50 (A549^+ACE2 cells) [nM] | effect on morphology of HAEC (histology) [5] | ATP levels (cell viability) (BCi-NS1.1 cells) | EC50 (SARS-CoV-2 [6]) [nM] | other results
1 | COc1cccc2[nH]c(C(=O)N[C@@H](CC(C)C)C(=O)N[C@@H](C[C@@H]3CCNC3=O)C(=O)CO)cc12 [PF-00835231] | fully protected | fully protected | decreased the overall number of infected foci | 591 nM and 1170 nM | 326 | 3 | viral titers below the limit of detection at most time points | the number of infected cells was significantly reduced | > 10000 | Neither drug caused measurable adverse effects on the morphology of the cultures | did not detect a decrease in ATP | 270 | change in antiviral efficacy when blocking MDR1 (SARS-CoV-2 USA-WA1/2020 [1]): no changes in antiviral efficacy when blocking MDR1 activity; EC50 ([2]; PF-00835231 versus remdesivir set (Table 1), n = 3): 184 nM; change in antiviral efficacy when blocking MDR1 (SARS-CoV-2 USA-WA1/2020 [4]; […], HAEC, 0.025 or 0.5 μM PF-00835231): no changes in antiviral efficacy when blocking MDR1 activity; antiviral activity against SARS-CoV-2 (SARS-CoV-2 [6]): high micromolar levels; effect of inhibiting MDR1 function on antiviral efficacy (SARS-CoV-2 [6]): significantly increased antiviral efficacy; inhibition of 3CLpro [7]: potent inhibition; combination effect with remdesivir in inhibiting SARS-CoV-2 (SARS-CoV-2 [8]): significant synergistic effects
2 | CC(C)C[C@H](NC(=O)OCc1ccccc1)C(=O)N[C@@H](CC1CCNC1=O)C(O)S(=O)(=O)[O-].[Na+] (stereo partly drawn) [GC-376, reference compound] |  | unable to protect cells from virus-induced CPE |  | 2730 nM | 529 | 10 |  |  | > 10000 |  |  | 900 | EC90 (SARS-CoV-2 USA-WA1/2020 [1]): 4550 nM and 5250 nM; number and size of viral foci (SARS-CoV-2 USA-WA1/2020 [1]; 1 μM, A549+ACE2): decreased the number and size of viral foci
3 | CCC(CC)COC(=O)[C@H](C)N[P@](=O)(OC[C@H]1O[C@@](C#N)(c2ccc3c(N)ncnn23)[C@H](O)[C@@H]1O)Oc1ccccc1 [remdesivir, reference compound] | fully protected |  | decreased the overall number of infected foci |  |  |  | viral titers below the limit of detection at most time points | the number of infected cells was significantly reduced |  | Neither drug caused measurable adverse effects on the morphology of the cultures | caused a reduction in ATP levels compared to carrier control, albeit not statistically significantly |  | effect on transepithelial resistance (TEER) over time [5]: negatively impacted TEER over time, albeit not statistically significantly compared to untreated cultures; patients with benefit (COVID-19 patients): 68%; CC50 (in vitro): > 10000 nM
